For one series, the target named is T1, D2L receptor (Homo sapiens, UniProt P14416).
T1 construct: expressed in transfected cells; host or cells: HEK293
The experiment in a line: Intrinsic activity, FLIPR calcium assay, HEK293/D2L. In kind it is cell-based.

For series [1], the target named is 5-HT2A receptor (Rattus norvegicus, UniProt P14842). Put plainly: 5-HT2A receptor radioligand binding (3H-ketanserin). Particulars: Receptor Affinity Ki ± SEM 5-HT2A.
Series [2] has as its target D3 receptor (Rattus norvegicus, UniProt P19020). The experiment in a line: D3 receptor radioligand binding (3H-7-OH-DPAT).
The next series addresses hERG potassium channels (Homo sapiens, UniProt Q12809). The experiment in a line: hERG potassium channel block, patch clamp in HEK cells. On the technique in general: Block of hERG is tested as a sign of cardiac risk.
A further series concerns the target D2 receptor (Rattus norvegicus, UniProt P61169). Put plainly: D2 receptor radioligand binding (3H-spiperone). Particulars: Receptor Affinity Ki ± SEM D2, rat striatum, 3H-spiperone; mean ± SEM of three experiments.
The target in the next series is T2, 5-HT2C receptor (Rattus norvegicus, UniProt P08909).
T2 sequence (P08909 33-460): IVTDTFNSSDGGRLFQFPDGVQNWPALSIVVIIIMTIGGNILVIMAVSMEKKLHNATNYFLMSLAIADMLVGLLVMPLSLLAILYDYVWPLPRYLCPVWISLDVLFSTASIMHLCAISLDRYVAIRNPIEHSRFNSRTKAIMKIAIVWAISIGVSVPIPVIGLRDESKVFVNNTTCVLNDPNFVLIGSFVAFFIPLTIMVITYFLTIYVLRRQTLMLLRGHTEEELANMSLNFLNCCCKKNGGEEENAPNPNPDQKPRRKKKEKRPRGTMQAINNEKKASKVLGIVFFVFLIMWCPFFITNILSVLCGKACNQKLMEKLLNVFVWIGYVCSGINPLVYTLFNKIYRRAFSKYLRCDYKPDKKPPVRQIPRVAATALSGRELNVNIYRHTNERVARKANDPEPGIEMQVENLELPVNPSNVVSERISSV
The experiment in a line: 5-HT2C receptor radioligand binding (3H-mesulergine). The note with it: rat brain cortex, mean ± SEM of three experiments, read-out: Receptor Affinity Ki ± SEM 5-HT2C.

The next series concerns the target H1 receptor (Cavia porcellus, UniProt P31389). The experiment in a line: H1 receptor radioligand binding (3H-mepyramine). The note with it: guinea pig cerebellum, mean ± SEM of three experiments, read-out: Receptor Affinity Ki ± SEM H1.
In series [3] the test system is MK-801-induced hyperactivity in mice. Put plainly: MK-801-induced hyperactivity. Format: in vivo. Particulars: Mus musculus, po, MK-801 0.3 mg/kg sc, read-out: MK-80: MK-801-induced hyperactivity ED50.
Procedure: Apomorphine-Induced Climbing [1-3].
Animals were placed in Plexiglas cages
for evaluating locomotor activity.
5.3 Catalepsy Test [1-3].
Catalepsy was evaluated on a metal
(§1) A mean immobility score of 30 s was used
(§2) as the criterion for the presence of catalepsy.
Series [4] deals with APO-induced climbing in mice. The experiment in a line: Apomorphine-induced climbing. Format: in vivo. Particulars: Mus musculus, po, apomorphine 1.0 mg/kg sc.
Procedure: Apomorphine-Induced Climbing [1-3].
Animals were placed in Plexiglas cages
for evaluating locomotor activity.
5.3 Catalepsy Test [1-3].
Catalepsy was evaluated on a metal
as §1, §2
Series [5] in a line: in vivo. The note with it: mouse.
For series [6], the target named is T3, 5-HT2A receptor (Homo sapiens, UniProt P28223).
T3 construct: expressed in transfected cells; host or cells: HEK293
Put plainly: Intrinsic activity, FLIPR calcium assay, HEK293/5-HT2A. Format: cell-based.

Series [7] can be described thus: in vivo. The note with it: mouse, po.
In another series the target is T4, 5-HT1A receptor (Homo sapiens, UniProt P08908).
T4 construct: expressed in transfected cells; host or cells: HEK293
T4 sequence (P08908 1-422): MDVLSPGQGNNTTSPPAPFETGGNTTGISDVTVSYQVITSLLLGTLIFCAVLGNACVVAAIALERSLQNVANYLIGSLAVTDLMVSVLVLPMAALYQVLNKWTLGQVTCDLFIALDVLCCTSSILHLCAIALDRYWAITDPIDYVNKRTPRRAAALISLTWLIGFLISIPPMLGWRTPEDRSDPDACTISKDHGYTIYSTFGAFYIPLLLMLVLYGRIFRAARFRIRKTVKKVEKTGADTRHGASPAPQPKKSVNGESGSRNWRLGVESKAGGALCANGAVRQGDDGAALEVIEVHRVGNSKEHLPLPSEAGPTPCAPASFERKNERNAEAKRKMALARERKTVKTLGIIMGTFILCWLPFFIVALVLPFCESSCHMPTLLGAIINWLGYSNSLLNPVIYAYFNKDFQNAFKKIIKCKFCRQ
The experiment in a line: Intrinsic activity, FLIPR calcium assay, HEK293/5-HT1A. In kind it is cell-based. The note with it: antagonist mode.

A further series addresses α1 receptor. Put plainly: α1 receptor radioligand binding (3H-prazosin). Particulars: rat cerebral cortex, mean ± SEM of three experiments, read-out: Receptor Affinity Ki ± SEM α1.
In series [8] the target is T5, D3 receptor (Homo sapiens, UniProt P35462).
T5 construct: expressed in transfected cells; host or cells: HEK293/ACTOne
The experiment in a line: Intrinsic activity, FLIPR calcium assay, HEK293/ACTOne D3. In kind it is cell-based.

1 compound from article PMC7571155, “Design, Synthesis and Biological Investigation of Flavone Derivatives as Potential Multi-Receptor Atypical Antipsychotics” (Molecules, 2020) can be followed below.

Structures are written as SMILES.

T1 sequence (P14416 whole entry): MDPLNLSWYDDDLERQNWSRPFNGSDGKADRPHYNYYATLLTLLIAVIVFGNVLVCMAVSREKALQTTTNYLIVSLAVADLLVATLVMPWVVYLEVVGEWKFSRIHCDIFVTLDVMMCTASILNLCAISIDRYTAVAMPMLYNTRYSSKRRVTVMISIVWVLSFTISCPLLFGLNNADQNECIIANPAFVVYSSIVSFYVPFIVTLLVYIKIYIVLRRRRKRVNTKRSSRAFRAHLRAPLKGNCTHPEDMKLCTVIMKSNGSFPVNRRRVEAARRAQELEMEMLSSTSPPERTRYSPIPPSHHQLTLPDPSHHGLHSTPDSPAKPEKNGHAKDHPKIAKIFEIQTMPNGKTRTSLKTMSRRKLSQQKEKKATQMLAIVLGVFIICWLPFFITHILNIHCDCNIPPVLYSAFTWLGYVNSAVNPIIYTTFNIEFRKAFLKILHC
T3 sequence (P28223 whole entry): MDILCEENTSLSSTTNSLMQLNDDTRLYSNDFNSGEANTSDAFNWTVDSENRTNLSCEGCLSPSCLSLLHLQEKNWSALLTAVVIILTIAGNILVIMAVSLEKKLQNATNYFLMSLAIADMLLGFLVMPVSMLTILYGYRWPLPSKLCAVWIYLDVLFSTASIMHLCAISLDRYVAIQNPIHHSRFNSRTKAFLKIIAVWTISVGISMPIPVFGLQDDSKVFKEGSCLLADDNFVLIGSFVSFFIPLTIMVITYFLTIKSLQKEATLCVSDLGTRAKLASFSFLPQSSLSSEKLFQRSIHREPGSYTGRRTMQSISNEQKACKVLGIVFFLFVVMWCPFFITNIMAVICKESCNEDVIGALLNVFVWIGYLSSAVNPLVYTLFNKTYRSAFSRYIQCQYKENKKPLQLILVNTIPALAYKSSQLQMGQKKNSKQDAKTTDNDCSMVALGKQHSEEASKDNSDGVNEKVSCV
T5 sequence (P35462 whole entry): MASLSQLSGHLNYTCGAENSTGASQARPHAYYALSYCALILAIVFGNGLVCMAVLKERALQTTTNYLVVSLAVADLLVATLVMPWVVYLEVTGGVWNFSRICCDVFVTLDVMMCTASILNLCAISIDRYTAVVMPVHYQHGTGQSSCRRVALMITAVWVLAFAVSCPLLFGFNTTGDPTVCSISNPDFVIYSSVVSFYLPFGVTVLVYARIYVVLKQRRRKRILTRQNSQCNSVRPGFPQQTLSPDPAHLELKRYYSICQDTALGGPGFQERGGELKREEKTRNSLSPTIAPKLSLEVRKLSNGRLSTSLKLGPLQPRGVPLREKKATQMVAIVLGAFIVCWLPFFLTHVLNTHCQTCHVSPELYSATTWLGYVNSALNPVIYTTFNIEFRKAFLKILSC
Sequence of 5-HT2A receptor (Rattus norvegicus, UniProt P14842) (P14842 whole entry): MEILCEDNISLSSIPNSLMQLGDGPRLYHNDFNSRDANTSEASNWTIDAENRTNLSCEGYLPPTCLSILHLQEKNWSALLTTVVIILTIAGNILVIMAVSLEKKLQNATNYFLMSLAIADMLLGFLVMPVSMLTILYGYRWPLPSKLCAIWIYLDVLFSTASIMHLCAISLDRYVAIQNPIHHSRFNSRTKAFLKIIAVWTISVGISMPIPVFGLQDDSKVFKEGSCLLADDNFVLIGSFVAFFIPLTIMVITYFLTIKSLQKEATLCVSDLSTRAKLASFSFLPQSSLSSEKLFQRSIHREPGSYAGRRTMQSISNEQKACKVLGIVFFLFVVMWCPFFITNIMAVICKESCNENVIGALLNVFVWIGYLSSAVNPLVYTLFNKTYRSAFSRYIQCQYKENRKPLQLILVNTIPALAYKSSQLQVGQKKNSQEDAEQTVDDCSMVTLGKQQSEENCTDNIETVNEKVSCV
Sequence of D3 receptor (Rattus norvegicus, UniProt P19020) (P19020 whole entry): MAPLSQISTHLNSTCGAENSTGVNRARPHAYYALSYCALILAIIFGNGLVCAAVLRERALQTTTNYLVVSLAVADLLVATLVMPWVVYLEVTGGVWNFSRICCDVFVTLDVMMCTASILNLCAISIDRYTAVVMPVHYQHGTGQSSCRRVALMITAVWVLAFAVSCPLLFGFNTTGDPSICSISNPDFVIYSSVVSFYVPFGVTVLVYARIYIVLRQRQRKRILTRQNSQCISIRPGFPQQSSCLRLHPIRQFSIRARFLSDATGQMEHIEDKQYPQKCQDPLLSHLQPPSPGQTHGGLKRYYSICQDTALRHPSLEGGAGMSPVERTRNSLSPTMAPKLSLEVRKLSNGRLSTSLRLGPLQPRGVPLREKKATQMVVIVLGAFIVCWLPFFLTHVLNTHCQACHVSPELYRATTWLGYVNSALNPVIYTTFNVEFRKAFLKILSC
Sequence of hERG potassium channels (Q12809 whole entry): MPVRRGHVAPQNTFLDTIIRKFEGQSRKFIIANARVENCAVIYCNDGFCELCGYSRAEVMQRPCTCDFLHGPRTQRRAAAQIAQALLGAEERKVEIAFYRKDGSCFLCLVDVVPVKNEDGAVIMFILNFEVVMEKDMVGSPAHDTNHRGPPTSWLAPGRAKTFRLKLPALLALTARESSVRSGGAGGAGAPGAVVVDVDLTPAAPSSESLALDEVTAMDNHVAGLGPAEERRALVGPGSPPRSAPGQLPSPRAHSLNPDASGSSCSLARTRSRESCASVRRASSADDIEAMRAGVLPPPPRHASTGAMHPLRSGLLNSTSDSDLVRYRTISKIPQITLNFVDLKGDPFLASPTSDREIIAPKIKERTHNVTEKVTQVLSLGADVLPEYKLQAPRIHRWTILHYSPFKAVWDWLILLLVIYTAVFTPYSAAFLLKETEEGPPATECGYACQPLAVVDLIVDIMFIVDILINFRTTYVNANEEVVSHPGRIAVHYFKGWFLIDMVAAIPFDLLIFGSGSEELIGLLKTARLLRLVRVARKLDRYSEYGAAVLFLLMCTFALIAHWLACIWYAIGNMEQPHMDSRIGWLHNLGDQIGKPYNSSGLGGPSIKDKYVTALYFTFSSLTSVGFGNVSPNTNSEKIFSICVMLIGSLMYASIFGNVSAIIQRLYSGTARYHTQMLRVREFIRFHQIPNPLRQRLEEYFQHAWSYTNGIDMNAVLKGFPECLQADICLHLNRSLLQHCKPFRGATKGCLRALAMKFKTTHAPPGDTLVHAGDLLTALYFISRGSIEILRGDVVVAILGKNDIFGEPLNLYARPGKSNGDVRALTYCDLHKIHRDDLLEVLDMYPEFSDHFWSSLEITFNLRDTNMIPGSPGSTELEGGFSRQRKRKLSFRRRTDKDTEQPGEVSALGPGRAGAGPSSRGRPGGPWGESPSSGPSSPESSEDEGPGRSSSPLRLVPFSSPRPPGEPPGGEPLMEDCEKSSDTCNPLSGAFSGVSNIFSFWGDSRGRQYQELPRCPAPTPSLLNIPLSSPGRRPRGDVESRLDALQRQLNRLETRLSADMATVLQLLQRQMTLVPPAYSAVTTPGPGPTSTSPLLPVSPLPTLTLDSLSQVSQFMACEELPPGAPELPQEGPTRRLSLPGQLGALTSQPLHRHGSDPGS
Sequence of H1 receptor (P31389 whole entry): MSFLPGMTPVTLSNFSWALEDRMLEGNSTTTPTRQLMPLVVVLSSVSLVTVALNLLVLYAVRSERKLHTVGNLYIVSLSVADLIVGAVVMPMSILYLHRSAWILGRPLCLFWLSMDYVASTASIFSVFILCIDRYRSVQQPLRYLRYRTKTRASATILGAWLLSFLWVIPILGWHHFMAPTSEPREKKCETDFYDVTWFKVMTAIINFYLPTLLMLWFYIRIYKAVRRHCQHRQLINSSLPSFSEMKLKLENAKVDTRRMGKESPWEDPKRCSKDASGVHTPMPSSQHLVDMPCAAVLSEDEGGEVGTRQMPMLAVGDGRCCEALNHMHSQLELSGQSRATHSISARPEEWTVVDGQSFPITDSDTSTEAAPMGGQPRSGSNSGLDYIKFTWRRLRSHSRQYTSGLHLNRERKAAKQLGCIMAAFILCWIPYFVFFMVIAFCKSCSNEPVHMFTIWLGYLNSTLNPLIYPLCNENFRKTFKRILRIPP
Sequence of D2 receptor (P61169 whole entry): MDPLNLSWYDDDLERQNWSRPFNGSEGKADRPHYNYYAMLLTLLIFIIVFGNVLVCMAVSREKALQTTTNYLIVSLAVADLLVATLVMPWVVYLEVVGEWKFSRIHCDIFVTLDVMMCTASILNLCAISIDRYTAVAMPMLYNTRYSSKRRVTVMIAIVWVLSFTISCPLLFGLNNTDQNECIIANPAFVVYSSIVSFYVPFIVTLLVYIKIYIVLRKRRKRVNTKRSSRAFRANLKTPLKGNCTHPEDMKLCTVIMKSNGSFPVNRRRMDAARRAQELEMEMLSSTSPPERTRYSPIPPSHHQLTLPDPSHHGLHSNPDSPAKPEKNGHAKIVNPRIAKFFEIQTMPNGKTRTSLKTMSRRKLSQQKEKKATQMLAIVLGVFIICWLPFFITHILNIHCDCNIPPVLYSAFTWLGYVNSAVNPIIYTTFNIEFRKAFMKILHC

By IC50 is commonly meant the concentration needed to halve the response being measured. In general, inhibition refers to the change of the read-out against control, counted positive when it falls. Broadly, the Ki is a measure of affinity in units of concentration, obtained from inhibition or displacement. The term ED50 denotes the midpoint of the dose-response relation. The LD50 is the dose at which mortality reaches 50%. High values mean a less toxic substance, low ones a more toxic substance. On to `CC1(C)CC(=O)c2ccc(OCCCCN3CCC(c4noc5cc(F)ccc45)CC3)cc2O1` [Compound 6j, 7-(4-(4-(6-Fluorobenzo[d]isoxazol-3-yl)piperidin-1-yl)butoxy)-2,2-dimethylchroman-4-one], for which the IC50 at D2L receptor turned out to be 8.9 nM; against hERG potassium channels, 3770 ± 298 nM; at 5-HT2A receptor [6], 195 nM; on 5-HT1A receptor (5-HT1A), 201 nM; at D3 receptor [8], 31.5 nM. The inhibition at 10 µM at D2L receptor (HEK293, read-out: Inhibition (10 μM, %), D2L, antagonist mode, 10 μM, n = 3) was greater than 90%; on 5-HT2A receptor [6] (HEK293, read-out: Inhibition (10 μM, %), 5-HT2A, antagonist mode, 10 μM, n = 3), greater than 90%; on 5-HT1A receptor (HEK293, 5-HT1A, 10 μM, n = 3) it was greater than 90%; at D3 receptor [8] (HEK293, read-out: Inhibition (10 μM, %), D3, antagonist mode, 10 μM, n = 3) it was greater than 90%. For the same compound, the Ki worked out at 3.2 ± 0.4 nM at 5-HT2A receptor [1]; 25.4 ± 3.1 nM on D3 receptor [2]; 12.1 ± 1.5 nM at D2 receptor; 566 ± 75.4 nM at 5-HT2C receptor; 939 ± 101 nM on H1 receptor; 237 ± 86.4 nM at α1 receptor. Besides, the 50% effective dose (ED50) was 0.16 mg/kg in [3], 0.19 mg/kg in series [4], 58.4 mg/kg in the series “in vivo [7]” (Kun Ming (KM)) and 56.8 mg/kg in “in vivo [7]”. For the same compound, the LD50 at 24 h in “in vivo [5]” is greater than 2000 mg/kg.
